Values of other authors in patent US9700872B1, “Superpolar chromatographic stationary phases and extraction sorbents and their methods of synthesis” (THE FLORIDA INTERNATIONAL UNIVERSITY BOARD OF TRUSTEES, priority 2016, dated 2017).
Read-outs that look alike come from different tables or passages of the source.

Details: octanol/water
[1] = Top 100 EPA Priority Pollutants (Table 2)
[2] = exemplary polyhydroxy molecules (Table 1)

Row | Log Kow [2] | Compound | Log Kow [1]
1 |  | c1ccc2c(c1)ccc1ccccc12 [Phenanthrene] | 4.5
2 |  | c1ccc2cc3ccccc3cc2c1 [Anthracene] | 4.4
3 |  | Clc1ccc(Oc2ccccc2)cc1 [4-Chlorophenyl phenyl ether] | 4.3
4 |  | Clc1ccccc1 [Chlorobenzene] | 2.84
5 | −3.1 | OC[C@@H](O)[C@@H](O)[C@H](O)[C@@H](O)CO [Sorbitol] | 
6 |  | CCCCOC(=O)c1ccccc1C(=O)OCCCC [Di-N-butyl phthalate] | 4.7
7 |  | c1cc2c3c(cccc3c1)CC2 [Acenaphthene] | 3.9
8 |  | CCOC(=O)c1ccccc1C(=O)OCC [Diethyl phthalate] | 2.5
9 |  | C1=Cc2cccc3cccc1c23 [Acenaphthylene] | 3.7
10 |  | c1ccc2c(c1)Cc1ccccc1-2 [Fluorene] | 4.2
11 |  | Clc1ccccc1Cl [1,2-Dichlorobenzene] | 3.4
12 |  | c1ccc2c(c1)cc1ccc3cccc4ccc2c1c34 [Benzo(a)pyrene] | 6
13 | −1.5 | OC[C@H]1O[C@H](O[C@]2(CCl)O[C@H](CCl)[C@@H](O)[C@@H]2O)[C@H](O)[C@@H](O)[C@H]1Cl [Sucralose] | 
14 |  | CC1=CC(=O)CC(C)(C)C1 [Isophorone] | 1.6
15 |  | Brc1ccc(Oc2ccccc2)cc1 [4-Bromophenyl phenyl ether] | 4.4
16 |  | CCCCC(CC)COC(=O)c1ccccc1C(=O)OCC(CC)CCCC (centres unmarked) [Bis(2-Ethylhexyl)phthalate] | 7.4
17 |  | CCCl [Chloroethane] | 1.2
